Laboratory results: patent US11814680B2, “Biomarkers for detecting senescent cells” (Universität für Bodenkultur Wien, priority 2017, dated 2023)
Entries after “also recorded” stand apart in the source; their conditions may differ. Marks after values point to notes of the source that are not given here.

Assays:
[1] = test system: p16-3MR mice; assay: Next generation sequencing of circulating miRNAs in serum after induction (dox) and removal (GCV) of senescent cells; type: in vivo, mouse; settings: for log fold change / avg TPM dox: serum miRNA; for log fold change: dox vs pbs, p16-3MR mice; for avg TPM dox: dox-treated p16-3MR mice
Procedure: p16-3MR (Demaria et al, 2014, Developmental Cell 31:722-733) mice were bred in house and maintained in the AALAC-accredited Buck Institute for Research on Aging (Novato, Calif.) animal facility. 10 to 12-week-old p16-3MR male mice were used for experiments. Mice were divided in 4 groups and each group consisted of 3 animals. In group A, control mice were injected with PBS. In group B, mice were treated with Ganciclovir (GCV) (Sigma-Aldrich) dissolved in PBS for 5 consecutive days. In group C, mice were treated with one dose of Doxorubicine hydrochloride (Sigma-Aldrich) dissolved in PBS. In group D, mice were first treated with Doxorubicine and then treated 10 days later with GCV. Mice were intraperitoneally injected with one dose of 10 mg/kg of Doxorubicine hydrochloride, and GCV was administered daily by intraperitoneal injections for 5 consecutive days at concentration of 25 mg/kg in PBS. 4 days after the last GCV dose, animals were euthanized with CO2 and blood was withdrawn immediately. Blood was then incubated for 30 min at room temperature and centrifuged at 3400×g for 10 min. Serum was carefully collected in a sterile tube without disturbing the cell pellet and stored at −80° C. for further experiments.
Total RNA extraction was performed from 200 μl of serum using the Qiagen miRNeasy™ extraction kit (Qiagen, Germany). RNA yield was quality checked for homogenous extraction efficiency and hemolysis on the basis qPCR amplification of spiked-in as well as hemolysis-responsive RNAs (Blondal et al). In total 2 μl total RNA were used for library preparation using the CleanTag library preparation protocol (Trilink Biotechnologies, USA), which uses chemically modified adapters to prevent adapter self-ligation. Library quality and yield was controlled using Bioanalyzer DNA-1000 chips. Due to the high purity, libraries were not purified prior to sequencing on an ILLUMINA™ NextSeq 500 sequencing system with 50 bp single-end reads.
Next-generation sequencing was performed at Exiqon (Denmark). Raw reads were quality filtered for a Q-score of 30 or higher. Adapter sequences were trimmed and the remaining reads were mapped against the mouse genome, miRBase, non-coding RNA databases and classified as either microRNAs, small RNAs, genome mapping RNAs or outmapped RNA sequences. Read counts were added for all microRNA isoforms (isomiRs) and normalized by dividing the microRNA read count by the total number of mapped reads and multiplying by 1 million (Tags Per Million). Tags per millions were used for data mining (PCA and hierarchical clustering) using the web-tool clustvis (Metsalu and Vilo 2015).
For differential expression analysis, the EdgeR statistical software package was used. For normalization, the trimmed mean of M-values method was used based on log-fold and absolute gene wise changes in expression levels between samples (TMM normalization). […] Additionally, the normalization step offsets under-sampling effects (due to highly expressed microRNAs dominating the read set) by identifying scaling factors that minimize log-fold changes between samples across the majority of microRNAs.
For exploratory data analysis we applied principal component analysis (PCA) to the dataset of 50 most variable microRNAs according to the coefficient of variation. The PCA plot clearly indicates an effect of […] (dox) treatment on circulating microRNA levels in p16-3MR mice compared to the PBS treated control animals (FIG. 2). […] Analysis of differentially circulating miRNAs was focused on changes between dox treated versus control (PBS) to identify those miRNAs that are modulated by induction of senescence, as well as dox-GCV vs dox, in order to identify miRNAs that change after removal of senescent cells. A p-value threshold of <0.05 without correction for multiple testing was used. […] GCV-treated animals are supposed to have a reduced number of senescent cells compared to PBS due to forced apoptosis. […]

[2] = test system: p16-3MR mice; assay: ROC analysis of discriminatory power of circulating microRNAs; type: in vivo, mouse; settings: serum, RT-qPCR, symbol after the number = significance; for ROC Analysis AUC Senescence: DOX vs PBS; for ROC Analysis AUC Senolytic Treatment: DOX/GCV vs DOX
Procedure: (§1) Statistical analysis was performed using Medcalc (version 18.2.1). Normal distribution was assessed using D'Agostino-Pearson test, where normality was accepted at p>0.05. One-way ANOVA together together with Student-Newman-Keuls test for all pairwise comparisons (post-hoc tests) was used to identify significant changes between groups (p<0.05). To assess the discriminatory power of individual microRNAs, receiver operating characteristic (ROC) analysis was applied. ROC curves were plotted using sensitivity (y-axis) and 1-specificity (x-axis) and the area under the ROC curve (AUC) was calculated. MicroRNAs with AUC-values of >0.7 were considered as good discriminators/biomarkers. MicroRNAs with AUC-values >0.8 were considered very good discriminators/biomarkers.
In order to assess the diagnostic power of circulating microRNAs for the exposure with senescence inducing substances (DOX) as well as the efficacy of senolytic treatment, ROC analysis was performed and the area-under-the-curve (AUC) was calculated. […] Table 23 below summarizes AUC values as well as 95% confidence intervals for 24 selected circulating microRNAs.

[3] = test system: p16-3MR mice; assay: Pearson correlation of serum miRNA levels to miR-34a-5p and miR-27a-3p; design: species or system mouse; settings: for Pearson Correlcation coefficient miR44a-5p: correlation of serum level to miR44a-5p (so in the source); for Pearson Correlcation coefficient miR-27a-3p: correlation of serum level to miR-27a-3p
Excerpt: In order to extend these finding to potential additional miRNAs, we performed Pearson correlation to miR-34a-5p and miR-27a-3p, resulting in additional potential biomarkers (Table 18).

[4] = test system: p16-3MR mice; assay: RT-qPCR verification of serum circulating microRNA changes, one-way ANOVA; type: in vivo, mouse; settings: for change of serum level following senolytic treatment (DOX/GCV compared to DOX): p<0.05, in words; for One-way ANOVA Senolytic Treatment (DOX/GCV) / One-way ANOVA Senescence (DOX vs PBS): serum; for One-way ANOVA Senolytic Treatment (DOX/GCV): DOX/GCV compared to DOX; for One-way ANOVA Senescence (DOX vs PBS): n=8 per group, male and female mice
Procedure: p16-3MR (Demaria et al, 2014, Developmental Cell 31:722-733) mice were bred in house and maintained in the AALAC-accredited Buck Institute for Research on Aging (Novato, Calif.) animal facility. 10 to 12-week-old p16-3MR […] mice were used for experiments. Mice were divided in 4 groups and each group consisted of 8 animals, 5 female, and 3 male, respectively. In group A, control mice were injected with PBS. In group B, mice were treated with Ganciclovir (GCV) (Sigma-Aldrich) dissolved in PBS for 5 consecutive days. In group C, mice were treated with one dose of Doxorubicine hydrochloride (Sigma-Aldrich) dissolved in PBS. In group D, mice were first treated with Doxorubicine and then treated 10 days later with GCV. Mice were intraperitoneally injected with one dose of 10 mg/kg of Doxorubicine hydrochloride, and GCV was administered daily by intraperitoneal injections for 5 consecutive days at concentration of 25 mg/kg in PBS. 4 days after the last GCV dose, animals were euthanized with CO2 and blood was withdrawn immediately. Blood was then incubated for 30 min at room temperature and centrifuged at 3400×g for 10 min. Serum was carefully collected in a sterile tube without disturbing the cell pellet and stored at −80° C. for further experiments.
Total RNA extraction was performed from 200 μl of serum using the Qiagen miRNeasy extraction kit (Qiagen, Germany). RNA yield was quality checked for homogenous extraction efficiency and hemolysis on the basis qPCR amplification of spiked-in as well as hemolysis-responsive RNAs (Blondal et al). In total 2 μl total RNA were used for reverse transcription using the Exiqon Universal RT kit II (Exiqon, Denmark). The obtained cDNA samples were pre-diluted 1:40 and subsequently mixed with SYBR Green® Mix (Exiqon, Denmark) to achieve a 1:100 dilution. The mix was distributed to primer-coated 384-well plates containing dried primer pairs for 96 selected microRNA or quality control assays. QPCR amplification was performed on a Roche LightCycler 480 II, using the manufacturer's recommendation for annealing, extension and denaturation.
Raw Cq-values were computed using the 2nd derivative method. Melting curves were checked for peaks to ensure specificity of the amplification reactions. Cq-values were subsequently normalized using Spike-In controls as references, to reduce technical noise in the data.
as §1

| Compound | Pearson Correlcation coefficient miR44a-5p [3] | Pearson Correlcation coefficient miR-27a-3p [3] | log fold change ([1]; NGS) | avg TPM dox ([1]; NGS) [TPM] | further results |
| --- | --- | --- | --- | --- | --- |
| COc1cccc2c1C(=O)c1c(O)c3c(c(O)c1C2=O)C[C@@](O)(C(=O)CO)C[C@@H]3O[C@H]1C[C@H](N)[C@H](O)[C@H](C)O1.Cl [Doxorubicine hydrochloride, reference compound] |  |  |  |  | circulating miRNA levels upon induction of senescence ([1]; PCA of 50 most variable microRNAs, compared to PBS, in words): significantly changed |
| Nc1nc(O)c2ncn(COC(CO)CO)c2n1 [ganciclovir, Ganciclovir, reference compound] |  |  |  |  | serum miRNAs compared to PBS treated animals ([1]; GCV 25 mg/kg i.p. for 5 days, in words): consistent decrease |
| miR-24-3p: circulating microRNA biomarker, SEQ ID No. 21 (UGGCUCAGUUCAGCAGGAACAG; expressed or natural sequence; listed as Homo sapiens) | 0.61 | 0.89 |  |  | ROC Analysis AUC Senescence [2]: 0.609°; ROC Analysis AUC Senolytic Treatment [2]: 0.789*; change of serum level following senolytic treatment (DOX/GCV compared to DOX) [4]: significantly changed; One-way ANOVA Senolytic Treatment (DOX/GCV) [4]: * (significant p < 0.05); One-way ANOVA Senescence (DOX vs PBS) [4]: ○ |
| miR-27a-3p: circulating microRNA biomarker, SEQ ID No. 5 (UUCACAGUGGCUAAGUUCCGC; expressed or natural sequence; listed as Homo sapiens) |  |  | 1.08 | 16.50 | serum level after rescue with dox+GCV (removal of senescent cells) ([1]; NGS, in words): decreased; serum level in dox-treated animals compared to PBS controls ([1]; NGS, in words): higher; also recorded: increased; ROC Analysis AUC Senescence [2]: 0.664°; ROC Analysis AUC Senolytic Treatment [2]: 0.719+; change of serum level following senolytic treatment (DOX/GCV compared to DOX) [4]: significantly changed; One-way ANOVA Senolytic Treatment (DOX/GCV) [4]: * (significant p < 0.05); One-way ANOVA Senescence (DOX vs PBS) [4]: ○ |
| miR-151-5p: circulating microRNA biomarker, SEQ ID No. 17 (UCGAGGAGCUCACAGUCUAGU; expressed or natural sequence; listed as Homo sapiens) | 0.73 | 0.37 |  |  | ROC Analysis AUC Senescence [2]: 0.828*; ROC Analysis AUC Senolytic Treatment [2]: 0.609°; regulation in serum after exposure to DOX compared to PBS ([4]; independent of gender, in words): significantly (up- or down-regulated); One-way ANOVA Senolytic Treatment (DOX/GCV) [4]: ○; One-way ANOVA Senescence (DOX vs PBS) [4]: * (significant p < 0.05) |
| mmu-let-7f-5p: circulating microRNA, SEQ ID No. 2 (UGAGGUAGUAGAUUGUAUAGUU; expressed or natural sequence; listed as Homo sapiens) |  |  | −1.29 | 178.25 |  |
| mmu-miR-143-3p: circulating microRNA, SEQ ID No. 4 (UGAGAUGAAGCACUGUAGCUC; expressed or natural sequence; listed as Homo sapiens) |  |  | −1.57 | 393.00 |  |
| mmu-miR-144-5p: circulating microRNA, SEQ ID No. 7 (GGAUAUCAUCAUAUACUGUAAG; expressed or natural sequence; listed as Homo sapiens) |  |  | −1.06 | 34.50 |  |
| mmu-miR-339-5p: circulating microRNA, SEQ ID No. 10 (UCCCUGUCCUCCAGGAGCUCACG; expressed or natural sequence; listed as Homo sapiens) | 0.64 | 0.87 |  |  |  |
| mmu-miR-652-3p: circulating microRNA, SEQ ID No. 13 (AAUGGCGCCACUAGGGUUGUG; expressed or natural sequence; listed as Homo sapiens) | 0.77 | 0.66 |  |  |  |
| mmu-miR-3058-3p: circulating microRNA, SEQ ID No. 8 (UUCCUGUCAGCCGUGGGUGCC; expressed or natural sequence; listed as Homo sapiens) | 0.80 | 0.54 |  |  |  |
| mmu-miR-6395: circulating microRNA, SEQ ID No. 12 (CUGGCCCUCUCUGCCCUGUUUA; expressed or natural sequence; listed as Homo sapiens) | 0.61 | 0.81 |  |  |  |
